Measurements taken from PubChem BioAssay (NCI).
Several values for one entry are separate records, joined by “and”; a condition that tells them apart may be missing. Equal values may be shown once.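 1) Cells in 96-well plates. 2) Compound, 48 h, 5 concentrations. 3) Linear interpolation between surrounding doses. 4) Unreached endpoint = highest concentration. Here, GI50 denotes the concentration required for 50% inhibition of growth. At the TGI there is no net growth.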

Columns and labels:
Experiment in all cases: NCI tumour cell line growth inhibition, 48 h
KM12 colon = system: KM12 colon
HS 578T breast = system: HS 578T breast
A549 NSCLC = system: A549 NSCLC
SK-MEL-28 melanoma = system: SK-MEL-28 melanoma
T-47D breast = system: T-47D breast
SF-539 CNS = system: SF-539 CNS

Compound	TGI (KM12 colon)	TGI (HS 578T breast)	TGI (A549 NSCLC)	TGI (SK-MEL-28 melanoma)	TGI (T-47D breast)	TGI (SF-539 CNS)	GI50 (KM12 colon)	GI50 (HS 578T breast)	GI50 (A549 NSCLC)	GI50 (SK-MEL-28 melanoma)	GI50 (T-47D breast)	GI50 (SF-539 CNS)
O=C1C=C(Nc2nc(C(=O)O)cc(=O)[nH]2)c2ccccc2C1=O	> 100 µM	> 100 µM	> 100 µM	> 100 µM	> 100 µM	> 100 µM	–	–	–	–	–	–
CCCCc1nc2cc(/C=C/C(=O)NO)ccc2n1CCN(CC)CC	5.73 µM	33 µM	2.4 µM	1.58 µM	> 47.4 µM	18.5 µM	0.356 µM	0.515 µM	0.318 µM	0.254 µM	0.136 µM	0.335 µM
COC(=O)[C@H](Cc1ccccc1)NC(=O)[C@@H](OC)[C@@H]1Cc2cc3cc(OC4CC(OC5CC(O)C(O)C(C)O5)C(O)C(C)O4)c(C)c(O)c3c(O)c2C(=O)[C@H]1OC1CC(OC2CC(OC3CC(C)(O)C(O)C(C)O3)C(O)C(C)O2)C(O)C(C)O1 (stereo not given in full)	0.12 µM	0.348 µM	> 14.3 µM	0.0368 µM	> 14.3 µM	0.065 µM	0.0148 µM	0.0131 µM	0.0532 µM	0.00578 µM	0.019 µM	0.0088 µM
CC(C)(C)c1nnc2n(c1=O)N=CC(c1ccc(Br)cc1)S2 (stereo not given)	> 100 µM	91.1 µM	> 100 µM	> 100 µM	> 100 µM	50.9 µM	26.1 µM	35.2 µM	43 µM	34.2 µM	23.8 µM	19.7 µM
CC(C)(C)n1cc(-c2ccnc(NCCNS(=O)(=O)c3cccc4ccccc34)c2)c(-c2cccc(F)c2)n1	55.8 µM	46 µM	76.6 µM	37 µM	47.8 µM	31.7 µM	17.9 µM	16.7 µM	16.7 µM	16.6 µM	4.22 µM	16.1 µM
Cc1[nH]nc(C(=O)Nc2n[nH]c3ccccc23)c1[N+](=O)[O-]	> 100 µM	> 100 µM	> 100 µM	> 100 µM	> 100 µM	> 100 µM	> 100 µM	> 68.7 µM	> 66.6 µM	> 100 µM	> 100 µM	> 100 µM
O=[N+]([O-])c1ccc2c(c1)S(=O)c1ccccc1-2 (stereo not given)	> 100 µM	> 100 µM	> 100 µM	> 100 µM	> 100 µM	> 100 µM	–	–	–	–	–	–
C=C1CO[C@@H]2C[C@@H]1CCC1(C)OC1CC/C(C)=C/CC[C@@]2(C)O (stereo not given in full)	42 µM	> 79.8 µM	34.9 µM	> 100 µM	> 69.2 µM	31.3 µM	17.7 µM	27.1 µM	17 µM	> 89.6 µM	26.7 µM	16.1 µM
CC(C)[C@@H](CS(=O)(=O)C(C)C)N1C(=O)[C@@](C)(CC(=O)O)C[C@H](c2cccc(Cl)c2)[C@H]1c1ccc(Cl)cc1	> 51.6 µM	72.1 µM	19.8 µM	61.2 µM	> 92 µM	35.9 µM	16 µM	17.1 µM	0.464 µM	15.5 µM	7.91 µM	14 µM
CCOC(=O)c1cnc2c(cnn2CC)c1NN=C(C)C	> 100 µM	87.9 µM	> 100 µM	> 100 µM	> 100 µM	> 100 µM	67.1 µM	24.1 µM	40.1 µM	> 100 µM	29 µM	74.9 µM
CN1c2ccccc2C(C)(C)C12CC(c1ccc(Cl)c(S(=O)(=O)N3CCCC3)c1)=NO2 (stereo not given)	–	> 100 µM	> 100 µM	> 100 µM	> 100 µM	> 100 µM	–	> 100 µM	> 100 µM	> 100 µM	> 100 µM	> 100 µM
OC(C(=Nc1ccccc1)c1ccccc1)c1ccccc1 (stereo not given)	10.4 µM	7.11 µM	33.6 µM	15.2 µM	> 100 µM	25.3 µM	–	–	–	–	–	–
C=C(C(=O)OC)[C@@H]1C[C@@H](O)[C@]2(C)CC/C=C(\C)CCC[C@H](C)[C@H](O)C1O2	> 100 µM	> 100 µM	> 100 µM	> 100 µM	> 100 µM	> 100 µM	41 µM	32.8 µM	61.3 µM	> 100 µM	52.8 µM	> 100 µM
COc1ccc2c(c1)C(=O)c1c-2n(CCCCl)c(=O)c2cc(N(C)C)ccc12	> 100 µM	> 100 µM	> 100 µM	> 100 µM	> 100 µM	47.4 µM	3.56 µM	26.8 µM	> 100 µM	> 100 µM	34.6 µM	12.4 µM
CC(C)(CCC(C)(C)c1ccccc1)c1ccccc1	30.6 µM	53.4 µM	> 100 µM	42.7 µM	36.6 µM	43.6 µM	–	–	–	–	–	–
c1ccc2c(c1)ccc1c3ccccc3ccc21	> 50 µM	> 50 µM	> 50 µM	> 50 µM	> 50 µM	> 50 µM	> 50 µM	> 50 µM	> 50 µM	> 50 µM	> 50 µM	> 50 µM
CC1(C)CC[C@]2(C(=O)O)CC[C@]3(C)[C@H](CC[C@@H]4[C@@]5(C)CCC(=O)C(C)(C)[C@@H]5CC[C@]43C)[C@H]2[C@H]1OC(=O)C(F)(F)F	24.4 µM	83.5 µM	31.6 µM	28.2 µM	23.9 µM	18.1 µM	10.4 µM	20.3 µM	9.66 µM	13.6 µM	3.84 µM	5.34 µM
CN1CCN(c2cc(Nc3cc(C4CC4)[nH]n3)nc(Nc3ccc(CC(=O)NCc4cccc(F)c4)cc3)n2)CC1	12.1 µM	2.34 µM	11.3 µM	2.46 µM	13.8 µM	2.28 µM	0.0671 µM	0.28 µM	0.77 µM	0.971 µM	2.27 µM	0.858 µM
COc1cc2c3c(n(CCCNCCN4CCOCC4)c(=O)c2cc1OC)-c1cc2c(cc1C3=O)OCO2	1.6 µM and 4.69 µM	13.3 µM and 48 µM	5.42 µM	–	50 µM and 70.2 µM	3.88 µM	0.554 µM and 1.48 µM	2.94 µM and 16.9 µM	0.182 µM and 1.37 µM	–	2.56 µM and 23.5 µM	1.08 µM
COc1ccc(Nc2c[nH]c(=O)[nH]c2=O)cc1	> 100 µM	–	> 100 µM	> 100 µM	> 100 µM	> 100 µM	–	–	–	–	–	–
